Reference: patent publication US7714014B2, “Targeting GLI proteins in human cancer by small molecules” (The Regents of the University of California, priority 2005, dated 2010)

Columns and labels:
[1] = Pharmacokinetic analysis in mice (oral administration); type: in vivo, mouse
Protocol: In another pharmacokinetic study, three mice were orally administrated with the small molecule compound FN1-5 at the dose of 30 mg/kg body weight. Then, as described above, plasma was collected from the tail-vein of each mouse and the concentration of FN1-5 in each plasma sample was determined by mass spectroscopy.
Similarly, the pharmacokinetic properties of orally administered small molecule compound FN1-8 were analyzed (FIG. 22B). Comparing the uptake of FN1-8 to FN1-5, the uptake of FN1-5 after oral administration seems to be better, by about 7 fold.

[2] = tested on: NSCLC cells A549, H358, and H322; experiment: MTS cell proliferation assay; type: cell-based, human; settings: 7.5 μM or 15 μM; dose-dependent, already after 1 day
Excerpt: Another assay for determining the number of viable cells in proliferation or cytotoxicity assays is the MTS assay, a calorimetric method. MTS assay reagents are commercially available (Promega Corp., Madison, Wis.). The reagent contains a tetrazolium compound [3-(4,5-dimethylthiazol-2-yl)-5-(3-carboxymethoxyphenyl)-2-(4-sulfophenyl)-2H-tetrazolium, inner salt; MTS] and an electron coupling reagent (phenazine ethosulfate; PES). PES has enhanced chemical stability, which allows it to be combined with MTS to form a stable solution. The MTS tetrazolium compound (Owen.s reagent) is bioreduced by cells into a colored formazan product that is soluble in tissue culture medium. This conversion may be accomplished by NADPH or NADH produced by dehydrogenase enzymes in metabolically active cells. The quantity of formazan product as measured by the absorbance at 490 nm is directly proportional to the number of living cells in culture. Because the MTS formazan product is soluble in tissue culture medium, this assay requires fewer steps than procedures that use tetrazolium compounds such as MTT. The formazan product of MTT reduction is a crystalline precipitate that requires an additional step in the procedure to dissolve the crystals before recording absorbance readings at 570 nm. […]

[3] = tested on: cytosolic β-catenin in human normal skin fibroblasts (Malme-3); experiment: Western blot of cytosolic β-catenin; type: cell-based; settings: 10 μM or 20 μM
Protocol: […] Protein concentrations were measured using Bio-Rad Protein Assay reagent. Whole cell lysate protein (5-20 ug) were boiled for 5 min and separated by 10-20% SDS-PAGE. Proteins were transferred to an Immobilon-P membrane (Millipore Corp., Bedford, Mass.) using semi-dry transfer cell (Bio-Rad; Benicia, Calif.). The membranes were blocked with 5% nonfat milk powder and 0.1% Tween 20 in Tris-buffer saline overnight at 4° C. and then incubated with primary antibody for 1 h at room temperature. Membranes were washed in 5% nonfat milk powder and 0.1% Tween 20 in Tris-buffer saline for three 10-min periods. Horseradish peroxidase-conjugated goat anti-rabbit or donkey anti-mouse antibodies were used as secondary antibodies. Proteins were visualized with chemiluminescence luminol reagents (Santa Cruz Bio-technology). Anti-Dvl-3, and anti-Survivin, antibodies were from Santa Cruz Biotechnology (Santa Cruz, Calif.). Anti-Caspase3 antibody was from Oncogene (Cambridge, Mass.). Anti-β-Actin antibody was from Sigrna-Aldrich Corp. (St. Louis, Mo.). Anti-β-catenin antibody was from Transduction Laboratories (Lexington, Ky.). Anti-Cytochrome c antibody was from BD Biosciences (San Diego, Calif.). For detecting alteration of β-catenin cytosolic extracts were prepared and examined as described previously in the publications from our lab. […]

[4] = tested on: NSCLC cell lines A549, H358, and H322; experiment: Dose titration, cell killing; type: cell-based, human; settings: 7.5-30 μM tested, 3 days
Protocol: Typically, the small molecule compounds of the present invention were dissolved in DMSO at a concentration of 30 mM. The small molecule compounds were then tested under cell culture conditions at different concentrations ranging from 0, 10, 30, 50, to 100 uM. To determine cell survival after treatment, the cells were incubated with the small molecule compounds in 6-well plates for about 3 days. After removal of the cell culture medium, 1-ml of 0.5% crystal violet solution (prepared in 20% ethanol and 20% methanol) was added to stain the cells for 5 min. Then the crystal violet solution was rinsed clean with tap water. Cell survival was estimated based on the density of crystal stained plates.
Dose titration experiments of small molecule compound FN1-8 was performed using the NSCLC cell lines A549, H358, and H322. A 549, H358, and H322 cells were plated in 6-well plates and incubated with DM SO (control) or 7.5 μM, 10 μM, 15 μM, 20 μM, and 30 μM of FN1-8, respectively, for 3 days. A dramatic and dose-dependent cell killing in these cell lines was observed when FN1-8 was added at 15 μM or more. FN1-8 induced cell killing in A549 and […] at slightly lower concentrations than in H322 cells (data not shown). After 3 days, approximately 28% of the A549 cells and 58% of H358 underwent apoptosis when incubated with 20 μM FN1-8 (Table 3).

[5] = tested on: human normal skin fibroblast cells (Malme-3); experiment: Time course of cell survival (flow cytometry); type: cell-based; settings: 10 μM or 20 μM, after 6 days
Protocol: To investigate whether small molecule compounds of the present invention, e.g., FN1-8, specifically kill cancer cells, time course experiments of cell survival after administration of 10 μM and 20 μM of FN1-8 were also conducted using human normal skin fibroblast cells (Malme-3).

Row | uptake of FN1-5 relative to FN1-8 ([1]; oral administration) | time of uptake into plasma ([1]; oral, 30 mg/kg) [min] | time within which plasma concentration diminishes ([1]; oral, 30 mg/kg) [h] | Compound | cell proliferation (MTS) [2] | cytosolic β-catenin level [3] | concentration at which dramatic and dose-dependent cell killing was observed [4] [µM] | cell killing in normal cells [5]
1 | about 7 fold | ≤ 10 | ≤ 24 | O=C(NCCCCCO)C1C(c2ccccc2)=NN(c2ccccc2)C1c1ccccc1 (stereo not shown) [FN1-5, N-(5-Hydroxypentyl)-1,3,5-triphenyl-4,5-dihydro-pyrazole-4-carboxyamide] |  |  |  | 
2 |  |  |  | O=C(NCCc1ccc(O)cc1)C1C(c2ccccc2)=NN(c2ccccc2)C1c1ccccc1 (stereo not shown) [FN1-8, N-(2-(4-Hydroxyphenyl)ethyl)-1,3,5-triphenyl-4,5-dihydro-pyrazole-4-carboxyamide] | significantly inhibited cell proliferation | no noticeable change | ≥ 15 | no cell killing
